The record followed here is ChEMBL document CHEMBL3525951, “Reevaluation of the microsomal metabolism of montelukast: major contribution by CYP2C8 at clinically relevant concentrations” (Drug Metab Dispos, 2011).

Data set [1] concerns the target T1, Cytochrome P450 3A4 (Homo sapiens, UniProt P08684). Put plainly: Activity of recombinant human CYP3A4 expressed in microsomes isolated from baculovirus infected insect cell assessed as enzyme-mediated 2-(2-((R)-3-((1-(carboxymethyl)cyclopropyl)methylthio)-3-(3-(2-(7-chloroquinolin-2-yl)vinyl)phenyl)propyl)phenyl)-2-hydroxypropanoic acid formation at 0.02 uM after 30 mins by LC-MS analysis. It is filed as ADME. The conditions noted are these: 0.5 h.

The target in data set [2] is T2, Cytochrome P450 2C8 (Homo sapiens, UniProt P10632).
T2 sequence (P10632 whole entry): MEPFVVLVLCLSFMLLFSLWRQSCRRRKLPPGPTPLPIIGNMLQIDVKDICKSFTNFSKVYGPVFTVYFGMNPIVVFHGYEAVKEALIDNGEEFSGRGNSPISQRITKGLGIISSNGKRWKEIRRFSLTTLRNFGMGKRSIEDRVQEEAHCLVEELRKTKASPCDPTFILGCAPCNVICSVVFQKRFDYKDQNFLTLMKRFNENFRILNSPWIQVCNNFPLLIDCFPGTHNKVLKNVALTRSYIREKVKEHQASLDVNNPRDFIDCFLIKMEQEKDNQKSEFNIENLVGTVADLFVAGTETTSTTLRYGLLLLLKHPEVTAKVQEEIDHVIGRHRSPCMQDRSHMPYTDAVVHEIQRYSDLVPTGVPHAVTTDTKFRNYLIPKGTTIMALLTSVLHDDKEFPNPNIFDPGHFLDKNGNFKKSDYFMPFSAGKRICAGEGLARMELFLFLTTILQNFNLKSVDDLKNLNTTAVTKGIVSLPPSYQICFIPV
The data set is described as follows: Activity of recombinant human CYP2C8 expressed in microsomes isolated from baculovirus infected insect cell assessed as enzyme-mediated compound formation treated with montelukast at 0.02 to 1 uM after 60 mins by LC-MS analysis. The data set is classed as ADME. Conditions: 1 h.

In another data set the target is Cytochrome P450 2C9 (Homo sapiens, UniProt P11712). The data set is described as follows: Activity of recombinant human CYP2C9 expressed in microsomes isolated from baculovirus infected insect cell assessed as enzyme-mediated compound formation treated with montelukast at 0.02 to 0.1 uM after 12 mins by LC-MS analysis. It is filed as ADME. Conditions: 0.2 h.
A further data set addresses T3, Cytochrome P450 2B6 (Homo sapiens, UniProt P20813).
T3 sequence (P20813 whole entry): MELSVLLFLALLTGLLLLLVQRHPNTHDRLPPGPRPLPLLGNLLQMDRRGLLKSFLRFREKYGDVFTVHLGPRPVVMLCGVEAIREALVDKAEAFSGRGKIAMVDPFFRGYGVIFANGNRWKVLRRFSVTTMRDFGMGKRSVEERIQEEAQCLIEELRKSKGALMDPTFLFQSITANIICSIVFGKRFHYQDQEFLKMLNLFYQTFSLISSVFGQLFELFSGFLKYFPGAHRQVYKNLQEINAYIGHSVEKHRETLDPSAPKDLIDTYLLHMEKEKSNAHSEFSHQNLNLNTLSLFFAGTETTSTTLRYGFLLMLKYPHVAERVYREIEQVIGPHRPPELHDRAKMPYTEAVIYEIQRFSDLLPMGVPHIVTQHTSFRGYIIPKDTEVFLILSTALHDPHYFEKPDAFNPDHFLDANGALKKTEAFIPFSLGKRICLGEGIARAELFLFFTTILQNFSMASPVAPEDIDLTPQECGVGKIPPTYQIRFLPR
The data set is described as follows: Activity of recombinant human CYP2B6 expressed in microsomes isolated from baculovirus infected insect cell assessed as enzyme-mediated 2-(2-((R)-3-((1-(carboxymethyl)cyclopropyl)methylthio)-3-(3-(2-(7-chloroquinolin-2-yl)vinyl)phenyl)propyl)phenyl)-2-hydroxypropanoic acid formation at 1 uM after 30 mins by LC-MS analysis. It is filed as ADME. The conditions noted are these: 0.5 h.

The target of data set [3] is T2, Cytochrome P450 2C8. Put plainly: Activity of recombinant human CYP2C8 expressed in microsomes isolated from baculovirus infected insect cell assessed as enzyme-mediated compound formation treated with montelukast at 0.02 to 0.1 uM after 3 mins by LC-MS analysis. The data set is classed as ADME. The conditions noted are these: 0.05 h.
In data set [4] the test system is Liver microsome. The data set is described as follows: Drug metabolism in human liver microsomes assessed as 2-(2-((R)-3-((1-(carboxymethyl)cyclopropyl)methylthio)-3-(3-(2-(7-chloroquinolin-2-yl)vinyl)phenyl)propyl)phenyl)-2-hydroxypropanoic acid formation at 0.02 to 0.4 uM preincubated for 3 mins followed by beta-NADPH addition by LC-MS analysis. The data set is classed as ADME. A general note: Liver microsomes are vesicles of endoplasmic reticulum, rich in cytochrome P450 enzymes.

In data set [5] the test system is Liver microsome. The data set is described as follows: Drug metabolism in human liver microsomes assessed as 2-(1-(((1R)-1-(3-(2-(7-chloroquinolin-2-yl)vinyl)phenyl)-3-(2-(1,2-dihydroxypropan-2-yl)phenyl)propylthio)methyl)cyclopropyl)acetic acid formation at 0.1 uM after 12 mins by LC-MS analysis in presence of 2-(1-(((S)-1-(3-(2-(7-chloroquinolin-2-yl)vinyl)phenyl)-3-(2-(2-hydroxypropan-2-yl)phenyl)propylsulfinyl)methyl)cyclopropyl)acetic acid. The data set is classed as ADME. The conditions noted are these: 0.2 h.

Data set [6] has as its system Liver microsome. Put plainly: Drug metabolism in human liver microsomes assessed as (R)-2-(1-((1-(3-(2-(7-chloroquinolin-2-yl)vinyl)phenyl)-3-(4-hydroxy-2-(2-hydroxypropan-2-yl)phenyl)propylthio)methyl)cyclopropyl)acetic acid formation at 0.02 to 0.4 uM preincubated for 3 mins followed by beta-NADPH addition by LC-MS analysis. It is filed as ADME.
In data set [7] the test system is Liver microsome. Put plainly: Drug metabolism in human liver microsomes assessed as 2-(1-(((1R)-1-(3-(2-(7-chloroquinolin-2-yl)vinyl)phenyl)-3-(2-(1,2-dihydroxypropan-2-yl)phenyl)propylthio)methyl)cyclopropyl)acetic acid formation at 0.4 uM after 15 mins by LC-MS analysis in presence of CYP2C8 inhibitor gemfibrozil 1-O-beta glucuronide and trimethoprim, CYP2C9 inhibitor sulfaphenazole, and CYP2E1 inhibitor DDC. It is filed as ADME. The conditions noted are these: 0.25 h.

The target of the next data set is T4, Cytochrome P450 2A6 (Homo sapiens, UniProt P11509).
T4 sequence (P11509 whole entry): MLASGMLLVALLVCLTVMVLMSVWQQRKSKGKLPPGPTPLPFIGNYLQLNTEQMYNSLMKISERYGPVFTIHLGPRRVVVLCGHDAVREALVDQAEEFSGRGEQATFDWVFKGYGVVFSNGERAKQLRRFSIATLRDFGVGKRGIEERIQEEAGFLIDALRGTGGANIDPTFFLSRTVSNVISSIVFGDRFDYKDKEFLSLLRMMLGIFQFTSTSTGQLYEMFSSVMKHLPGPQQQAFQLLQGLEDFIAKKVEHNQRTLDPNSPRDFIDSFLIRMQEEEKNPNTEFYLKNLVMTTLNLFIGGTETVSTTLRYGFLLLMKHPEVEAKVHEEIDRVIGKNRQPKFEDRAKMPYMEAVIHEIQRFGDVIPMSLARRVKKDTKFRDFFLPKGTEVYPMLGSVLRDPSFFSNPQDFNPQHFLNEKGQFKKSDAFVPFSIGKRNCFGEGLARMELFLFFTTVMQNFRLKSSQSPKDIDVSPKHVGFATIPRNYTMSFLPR
The data set is described as follows: Activity of recombinant human CYP2A6 expressed in microsomes isolated from baculovirus infected insect cell assessed as enzyme-mediated metabolite formation at 10 uM after 60 mins by LC-MS analysis. The data set is classed as ADME. Conditions: 1 h.

For data set [8], the target named is T1, Cytochrome P450 3A4. Put plainly: Activity of recombinant human CYP3A4 expressed in microsomes isolated from baculovirus infected insect cell assessed as enzyme-mediated (R)-2-(1-((1-(3-(2-(7-chloroquinolin-2-yl)vinyl)phenyl)-3-(4-hydroxy-2-(2-hydroxypropan-2-yl)phenyl)propylthio)methyl)cyclopropyl)acetic acid formation at 1 uM after 60 mins by LC-MS analysis. The conditions noted are these: 1 h.

Data set [9] can be described thus: Oral bioavailability in human at 10 mg administered through tablet. Conditions: in vivo. The data set is classed as ADME, organism-based.

T1 sequence (P08684 whole entry): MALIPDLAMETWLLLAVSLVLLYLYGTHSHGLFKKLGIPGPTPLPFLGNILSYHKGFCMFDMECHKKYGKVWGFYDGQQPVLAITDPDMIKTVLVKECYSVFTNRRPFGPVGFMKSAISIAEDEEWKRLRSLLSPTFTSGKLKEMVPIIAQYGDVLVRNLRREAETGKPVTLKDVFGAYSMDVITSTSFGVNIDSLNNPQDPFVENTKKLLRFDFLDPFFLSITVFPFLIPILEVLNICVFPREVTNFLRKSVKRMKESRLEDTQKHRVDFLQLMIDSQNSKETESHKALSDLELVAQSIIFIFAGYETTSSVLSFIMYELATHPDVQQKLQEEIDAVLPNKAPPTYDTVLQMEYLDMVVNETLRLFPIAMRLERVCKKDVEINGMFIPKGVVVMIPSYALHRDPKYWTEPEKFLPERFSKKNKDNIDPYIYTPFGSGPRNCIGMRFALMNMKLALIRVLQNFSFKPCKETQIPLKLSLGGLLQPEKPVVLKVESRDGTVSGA
Chain of Cytochrome P450 2C9 (P11712 whole entry): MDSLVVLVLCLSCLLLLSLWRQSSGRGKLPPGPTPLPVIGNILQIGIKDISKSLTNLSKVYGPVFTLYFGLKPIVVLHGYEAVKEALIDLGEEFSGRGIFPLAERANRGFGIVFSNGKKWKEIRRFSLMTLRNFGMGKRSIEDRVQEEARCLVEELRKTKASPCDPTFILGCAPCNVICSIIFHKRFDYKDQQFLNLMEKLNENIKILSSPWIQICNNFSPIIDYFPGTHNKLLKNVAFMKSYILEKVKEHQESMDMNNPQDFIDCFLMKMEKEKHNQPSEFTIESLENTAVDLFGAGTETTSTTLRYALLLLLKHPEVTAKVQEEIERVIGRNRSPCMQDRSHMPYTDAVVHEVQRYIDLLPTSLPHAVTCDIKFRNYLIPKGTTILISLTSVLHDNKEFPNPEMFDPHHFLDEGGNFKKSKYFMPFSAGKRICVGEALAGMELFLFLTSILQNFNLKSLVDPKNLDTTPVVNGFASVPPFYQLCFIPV

Regarding `CC(O)(CO)c1ccccc1CC[C@@H](SCC1(CC(=O)O)CC1)c1cccc(/C=C/c2ccc3ccc(Cl)cc3n2)c1` (some centres not stated), the Drug metabolism entry is “metabolite_not_detected” at Cytochrome P450 3A4 [1]; “metabolite_detected” at Cytochrome P450 2C8 [2]; “metabolite_detected” at Cytochrome P450 2C9; “metabolite_not_detected” at Cytochrome P450 2B6; “metabolite_detected” on Cytochrome P450 2C8 [3].
`CC(C)(O)c1ccccc1CC[C@@H](SCC1(CC(=O)[O-])CC1)c1cccc(/C=C/c2ccc3ccc(Cl)cc3n2)c1.[Na+]` [MONTELUKAST SODIUM]: the Drug metabolism entry is listed as “metabolite_detected” with Liver microsome [4]; “metabolite_not_detected” in the data set with Liver microsome [5]; “metabolite_detected” in the data set on Liver microsome [6]; “metabolite_not_detected” with Liver microsome [7]; “metabolite_detected” on Cytochrome P450 2A6; “metabolite_detected” at Cytochrome P450 3A4 [8]. Further, in data set [9], the bioavailability stood at 60%.

Broadly, the bioavailability is dose-corrected exposure relative to a reference, in per cent. A high value points to much systemic uptake.
